{"source": "patent US6114349A", "about": "“Substituted quinoline derivatives with antiviral action” (Hoechst Aktiengesellschaft, priority 1996, dated 2000)", "key": {"[1]": {"target": "T1, HIV \"Reverse Transcriptase\" (Human immunodeficiency virus type 1 group M subtype B, UniProt P04585)", "T1 construct": "purchased HT Biotechnology LTD, Cambridge, UK; host or cells: E. coli", "assay": "Inhibition of HIV reverse transcriptase, Scintillation Proximity Assay (SPA)", "assay_type": "biochemical", "conditions": "RT-SPA, 60 min, 37° C.; read-out: Reverse Transcriptase Assay IC-50 (converted)", "method": "Investigation of the Substances for Inhibition of HIV \"Reverse Transcriptase\"\nThe activity of the reverse transcriptase (RT) was determined using a \"Scintillation Proximity Assay\" (SPA).\nThe reagent kit for the RT-SPA was obtained from Amersham/Buchler (Brunswick). The enzyme RT (from HIV cloned in E. coli) came from HT Biotechnology LTD, Cambridge, UK.\nThe test was carried out according to the method manual of the manufacturer Amersham--with the following modifications:\nBovine serum albumin was added to the assay buffer to a final concentration of 0.5 mg/ml.\nThe test was carried out in Eppendorf reaction vessels with a […] batch volume.\nThe RT concentrate of the manufacturer (5000 U/ml) was diluted to an activity of 15 U/ml in tris HCl buffer 20 mM; pH 7.2; 30% glycerol.\nThe incubation time for the batches was 60 min (37° C.).\nAfter stopping the reaction and \"development\" with the bead suspension, 130 μl batches were transferred to 4.5 ml of tris HCl buffer, 10 mM; pH 7.4; 0.15 M NaCl and the tritium activity was measured in a β-counter.\nFor a preliminary test of the inhibitor activity, the substances were dissolved in DMSO (stock solution c=1 mg/ml) and tested in dilution in DMSO 10^-1, 10^-2, 10^-3 etc.\nFor the determination of IC50 values, the inhibitor stock solutions were further diluted in tris HCl buffer, 50 mM, pH 8 and tested in suitable concentrations.\nFrom the graphic representation of RT activity versus Log Clnh., the concentration associated with a 50% enzyme inhibition was determined."}, "HIV": {"tested_on": "HIV", "assay": "Testing of preparations against HIV in cell culture (giant cell formation in HIV-infected lymphocytes)", "assay_type": "cell-based", "conditions": "3 days, 37° C.; for MIC: Human immunodeficiency virus 1, 72 h, lowest concentration at which no giant cells occurred; for EC50: Human immunodeficiency virus 1, Lymphocyte, 72 h", "method": "Testing of Preparations Against HIV Cell Culture\nComplete medium additionally contains 20% fetal calf serum and 40 IU/ml of recombinant interleukin 2.\nLymphocytes isolated from fresh donor blood by means of Ficoll^R gradient centrifugation are cultured at 37° C. under 5% CO2 for 36 h in complete medium with addition of […] of phytohemagglutinin (Wellcome). After addition of 10% DMSO, the cells are frozen at a cell density of 5×10^6 and stored in liquid nitrogen. For the experiment, the cells are thawed, washed in RPMI medium and cultured in complete medium for 3-4 days.\nThe test preparations were dissolved in DMSO in a concentration of 16.7 mg/ml and diluted to 1 mg/ml in complete medium. 0.4 ml of medium was initially introduced into 24-well multiwell dishes. After addition of 0.1 ml of the dissolved preparation in the top row of the dish, a geometrical dilution series was produced by transfer of 0.1 ml in each case. Preparation-free controls always contained 0.4 ml of complete medium containing 0.5% DMSO. Lymphocyte cultures having a cell count of 5×10^5 cells/ml were infected by addition of 1/50 volumes of supernatant from HIV-infected lymphocyte cultures. The titer of these culture supernatants was determined by endpoint dilution with 1-5×10^6 infectious units/ml. After incubation at 37° C. for 30 min, the infected lymphocytes were removed by centrifugation and taken up again in the same volume of medium. 0.6 ml of this cell suspension in each case was added to all hollows of the test plate. The batches were incubated at 37° C. for 3 days.\nThe infected cell cultures were investigated under the microscope for the presence of giant cells, which indicate active virus replication in the culture. The lowest preparation concentration at which no giant cells occurred was determined as the inhibitory concentration against HIV. For the control, the supematants from the culture plates were determined for the presence of HIV antigen using an HIV antigen test according to the instructions of the manufacturer (Organon)."}, "[2]": {"conditions": "Hirsch, M. S. J. Infect. Dis. 157 (1988), 427-431; cited from earlier work"}}}
{"smiles": "CCCOC(=O)c1c(C)c(=S)[nH]c2ccc(Cl)cc12", "note": "[Compound 45]", "values": [{"measurement": "IC50", "setting": "[1]", "result": 34, "unit": "nM"}, {"measurement": "MIC", "setting": "HIV", "result": "< 0.2", "unit": "µg/mL"}, {"measurement": "EC50", "setting": "HIV", "result": "~0.04", "unit": "µg/mL"}]}
{"smiles": "CC(C)OC(=O)c1c(-c2ccccc2)c(=S)[nH]c2ccc(F)cc12", "note": "[Compound 15]", "values": [{"measurement": "IC50", "setting": "[1]", "result": 21, "unit": "nM"}, {"measurement": "MIC", "setting": "HIV", "result": "> 0.04", "unit": "µg/mL"}, {"measurement": "EC50", "setting": "HIV", "result": "~0.02", "unit": "µg/mL"}]}
{"smiles": "O=c1[nH]cnc2c1ncn2[C@H]1CC[C@@H](CO)O1", "note": "[DDI]", "values": [{"measurement": "therapeutic breadth / toxicity", "setting": "[2]", "result": "very narrow therapeutic breadth or by very severe toxicity which occurs even in the therapeutic range"}]}
{"smiles": "CCc1c(C(=O)OC2CCCC2)c2ccccc2[nH]c1=S", "note": "[Compound 30]", "values": [{"measurement": "IC50", "setting": "[1]", "result": 147, "unit": "nM"}, {"measurement": "MIC", "setting": "HIV", "result": "~0.2", "unit": "µg/mL"}, {"measurement": "EC50", "setting": "HIV", "result": "~0.04", "unit": "µg/mL"}]}
{"smiles": "CCc1c(C(=O)OC(C)C)c2ccccc2[nH]c1=S", "note": "[Compound 5]", "values": [{"measurement": "IC50", "setting": "[1]", "result": 35, "unit": "nM"}, {"measurement": "MIC", "setting": "HIV", "result": 0.2, "unit": "µg/mL"}, {"measurement": "EC50", "setting": "HIV", "result": 0.005, "unit": "µg/mL"}]}
{"smiles": "C=CCOC(=O)c1c(CC)c(=S)[nH]c2ccc(Cl)cc12", "note": "[Compound 71]", "values": [{"measurement": "IC50", "setting": "[1]", "result": 1, "unit": "nM"}, {"measurement": "MIC", "setting": "HIV", "result": "~0.4", "unit": "µg/mL"}, {"measurement": "EC50", "setting": "HIV", "result": "< 0.08", "unit": "µg/mL"}]}
{"smiles": "Cc1c(C(=O)OCC2CC2)c2cc(Cl)ccc2[nH]c1=O", "note": "[Compound 42]", "values": [{"measurement": "MIC", "setting": "HIV", "result": "> 0.2", "unit": "µg/mL"}, {"measurement": "EC50", "setting": "HIV", "result": "~0.1", "unit": "µg/mL"}]}
{"smiles": "CCc1c(C(=O)OC(C)C)c2cc(Cl)ccc2[nH]c1=S", "note": "[Compound 20, isopropyl 6-chloro-3-ethylquinoline-2(1H)-thione-4-carboxylate]", "values": [{"measurement": "IC50", "setting": "[1]", "result": 8, "unit": "nM"}, {"measurement": "MIC", "setting": "HIV", "result": "> 0.008", "unit": "µg/mL"}, {"measurement": "EC50", "setting": "HIV", "result": "~0.002", "unit": "µg/mL"}]}
{"smiles": "CC(C)OC(=O)c1c(C(C)C)c(=O)[nH]c2ccccc12", "note": "[Compound 34]", "values": [{"measurement": "IC50", "setting": "[1]", "result": 1520, "unit": "nM"}, {"measurement": "MIC", "setting": "HIV", "result": "> 0.2", "unit": "µg/mL"}, {"measurement": "EC50", "setting": "HIV", "result": "~0.1", "unit": "µg/mL"}]}
{"smiles": "CCc1c(C(=O)OC(C)C)c2cc(Cl)ccc2[nH]c1=O", "note": "[Compound 19, isopropyl 6-chloro-3-ethylquinolin-2(1H)-one-4-carboxylate]", "values": [{"measurement": "IC50", "setting": "[1]", "result": 94, "unit": "nM"}, {"measurement": "MIC", "setting": "HIV", "result": "~0.2", "unit": "µg/mL"}, {"measurement": "EC50", "setting": "HIV", "result": "~0.02", "unit": "µg/mL"}]}
{"smiles": "CCOC(=O)c1c(CC)c(=S)[nH]c2ccc(Cl)cc12", "note": "[Compound 67]", "values": [{"measurement": "IC50", "setting": "[1]", "result": 1, "unit": "nM"}]}
{"smiles": "Nc1ccn([C@H]2CC[C@@H](CO)O2)c(=O)n1", "note": "[DDC]", "values": [{"measurement": "therapeutic breadth / toxicity", "setting": "[2]", "result": "very narrow therapeutic breadth or by very severe toxicity which occurs even in the therapeutic range"}]}
{"smiles": "Cc1c(C(=O)OCC2CC2)c2cc(Cl)ccc2[nH]c1=S", "note": "[Compound 43]", "values": [{"measurement": "IC50", "setting": "[1]", "result": 26, "unit": "nM"}]}
{"smiles": "CCC(CC)OC(=O)c1c(-c2ccccc2)c(=S)[nH]c2ccc(Cl)cc12", "note": "[Compound 18]", "values": [{"measurement": "IC50", "setting": "[1]", "result": 29, "unit": "nM"}, {"measurement": "MIC", "setting": "HIV", "result": "> 0.2", "unit": "µg/mL"}, {"measurement": "EC50", "setting": "HIV", "result": "~0.08", "unit": "µg/mL"}]}
{"smiles": "CCc1c(C(=O)OC2CCCCC2)c2cc(Cl)ccc2[nH]c1=S", "note": "[Compound 70]", "values": [{"measurement": "IC50", "setting": "[1]", "result": 8, "unit": "nM"}, {"measurement": "MIC", "setting": "HIV", "result": "~0.4", "unit": "µg/mL"}, {"measurement": "EC50", "setting": "HIV", "result": "< 0.08", "unit": "µg/mL"}]}
{"smiles": "CC(C)OC(=O)c1c(-c2ccccc2Cl)c(=S)[nH]c2ccccc12", "note": "[Compound 61]", "values": [{"measurement": "IC50", "setting": "[1]", "result": 26, "unit": "nM"}, {"measurement": "MIC", "setting": "HIV", "result": "~0.08", "unit": "µg/mL"}]}
{"smiles": "Cc1c(C(=O)OC(C)C)c2cc(Cl)ccc2[nH]c1=O", "note": "[Compound 40]", "values": [{"measurement": "IC50", "setting": "[1]", "result": 608, "unit": "nM"}, {"measurement": "MIC", "setting": "HIV", "result": "> 0.04", "unit": "µg/mL"}, {"measurement": "EC50", "setting": "HIV", "result": 0.015, "unit": "µg/mL"}]}
{"smiles": "CC(C)OC(=O)c1c(-c2ccccc2)c(=S)[nH]c2ccc(Cl)cc12", "note": "[Compound 6]", "values": [{"measurement": "IC50", "setting": "[1]", "result": 22, "unit": "nM"}]}
{"smiles": "Cc1c(C(=O)OC(C)C)c2cc(Cl)ccc2[nH]c1=S", "note": "[Compound 41]", "values": [{"measurement": "MIC", "setting": "HIV", "result": "> 0.04", "unit": "µg/mL"}, {"measurement": "EC50", "setting": "HIV", "result": "< 0.001", "unit": "µg/mL"}]}
{"smiles": "CC(C)OC(=O)c1c(C(C)C)c(=S)[nH]c2ccccc12", "note": "[Compound 35]", "values": [{"measurement": "IC50", "setting": "[1]", "result": 529, "unit": "nM"}, {"measurement": "MIC", "setting": "HIV", "result": "> 0.04", "unit": "µg/mL"}, {"measurement": "EC50", "setting": "HIV", "result": "> 0.008", "unit": "µg/mL"}]}
{"smiles": "COC(=O)c1c(C)c(=S)[nH]c2ccc(Cl)cc12", "note": "[Compound 39]", "values": [{"measurement": "MIC", "setting": "HIV", "result": "> 0.2", "unit": "µg/mL"}, {"measurement": "EC50", "setting": "HIV", "result": 0.03, "unit": "µg/mL"}]}
{"smiles": "CC(C)Cc1c(C(=O)OC(C)C)c2ccccc2[nH]c1=O", "note": "[Compound 16]", "values": [{"measurement": "IC50", "setting": "[1]", "result": 372, "unit": "nM"}, {"measurement": "MIC", "setting": "HIV", "result": "> 0.04", "unit": "µg/mL"}, {"measurement": "EC50", "setting": "HIV", "result": 0.05, "unit": "µg/mL"}]}
